The subject of data set [1] is amyloid plaques in cortex and hippocampus. The data set can be described thus: Amyloid depositions and plaque load (6E10 IHC, ThioflavinS) in hAPP Tg mice. Format: in vivo, mouse. The procedure:
a) METHODS • i) Introduction • The study was designed to evaluate the efficacy of the test substance (XG-102, SEQ ID NO: 233) on behavioral, biochemical and histological markers using 5 months (±2 weeks) old female hAPP Tg mice. Therefore, mice were treated every two or three weeks up to 4 months and in the end of the treatment period behavior was evaluated in the Morris Water Maze. At sacrifice brain, CSF and blood were collected. Aβ40 and Aβ42 levels were determined in four different brain homogenate fractions as well as in CSF of Tg mice. Plaque load was quantified in the cortex and the hippocampus of 8 Tg animals per treatment group.
iv) Treatment • […] female hAPP transgenic mice were treated with either 0.1 mg/kg b.w./every two weeks or 10 mg/kg b.w./every three weeks of the test substance XG-102 (SEQ ID NO: 233) in two different dosages (n=12/group) or treated with the vehicle (n=12) s.c. once every three weeks over four months.
viii) Evaluation of Brain Morphology • Brain tissues of all Tg animals investigated were handled in exactly the same way to avoid bias due to variation of this procedure. From brain halves of 24 Tg mice (8 of each group) 20 cryo-sections per layer (altogether 5 layers), each 10 μm thick (Leica CM 3050S) were sagittally cut and 5 (one from each layer) were processed and evaluated for quantification of plaque load. The five sagittal layers corresponded with the FIGS. 104 to 105, 107 to 108, 111 to 112, 115 to 116 and 118 to 119 according to the morphology atlas “The Mouse Brain” from Paxinos and Franklin (2nd edition). The first layer was specified by the requirement to include the whole hippocampus with it's regions CA1, CA2, CA3, GDlb and GDmb. Immunoreactivity was quantitatively evaluated in the hippocampus and in the cortex using the monoclonal human Aβ-specific antibody 6E10 (Signet) as well as ThioflavinS staining. Remaining brain hemispheres or tissue not used were saved and stored at JSW CNS until the end of the project.
b) Evaluation • i) Behavior • In the Morris Water Maze trials length of swimming path, escape latencies, swimming speed and in the probe trial crossings over the former platform position and the time spent in each quadrant of the pool were measured for each Tg animal with a special computer software. • ii) Biochemical Evaluation • From all Tg mice CSF samples as well as samples from the brain preparations were analyzed with commercially available Aβ1-40 and Aβ1-42 ELISAs. Measurements of adequate standards were performed concurrently. Samples from brain preparations were analyzed in duplicates. […]

For data set [2], the system named is leucocytes (cd11b positive cells) in inflamed hind paw. Put plainly: Immunohistochemistry and CD11b staining on paw from CFA-induced inflammation (4 h). As to conditions: 10 μg/kg i.v. one hour prior to CFA; 4 h after CFA. Format: in vivo, C57/Bl6 mice. The procedure:
FIG. 19A, FIG. 19B, and FIG. 19C: Immunohistochemistry staining on paw from CFA-induced inflammation (4 h). Upper panels represent the Hematoxylin and Eosin (H&E) staining of hindpays. From left to right: a saline-treated animal which was not treated with CFA (Complete Freund's Adjuvant), a saline-treated animal which received CFA and a XG-102-(SEQ ID NO: 233) treated animal which also received a CFA injection. After CFA treatment, muscular and epithelial layers appear to be less organized due to edema. The presence of XG-102 (SEQ ID NO:233) positive cells was detected only in animal treated with XG-102 (upper right panel). […] 19A: Magnification ×20; 19B: Magnification ×40; 19C: Magnification ×100.
FIG. 20A represents the hind paw section of a CFA treated animal stained with three different dyes. The four upper panels represent the same portion at high magnification of a distal region. Distribution of the leucocyte marker (mainly granulocytes, macrophages and monocytes) cd11b (first from left) and XG-102 (SEQ ID NO: 233, second from left) as well as the Dapi nuclear stain (3rd from left) are indicated. The upper right panel represents the merge image of cd11b and XG-102 positive stain. […]

We go through one substance from US10023615B2, “Efficient transport into white blood cells” (priority 2008, dated 2018).

Entries after “also recorded” stand apart in the source; their conditions may differ. Ends that are not written are not given here.

“dqsrpvqpflnIttprkprpprrrqrrkkrg (DQSRPVQPFLNLTTPRKPRPPRRRQRRKKRG; not fully specified (some residues); printed as dqsrpvqpflnIttprkprpprrrqrrkkrg) [XG-102]”: in data set [1] (0.1 mg/kg), the “mean plaque size (ThioflavinS, hippocampus)” value is “reduced mean plaque size, however this effect did not reach significance level in the ANOVA”. Moreover, in data set [1] (10 mg/kg), the “6E10 IR plaque load (human amyloid)” value was “increased versus vehicle; also recorded: a tendentious increase of human amyloid beta”. Also, in data set [1] (0.1 and 10 mg/kg), the “hippocampal ThioflavinS positive plaques (number, area percentage)” value is given as “a negatively dose dependent reduction; also recorded: dose dependently reduced”. In data set [1] (mouse, in vivo), the “beta-sheet structures in plaques (6E10 and ThioflavinS quantifications)” value is listed as “a selective reduction of beta-sheet structures in the center of the plaques”; the “cortical ThioflavinS plaque load” value is listed as “not given for cortical plaques; also recorded: cortical plaque load remained unchanged”. In addition, in data set [2], the “co-localization with cd11b positive leucocytes” value was “co-localizes with a certain leucocyte population” and the “presence in leucocytes of inflamed paw (HRP staining)” value is recorded as “presence of XG-102 in infiltrating leucocytes”.
